In patent US20230233569A1 (Revolution Medicines, Inc., priority 2020, published 2023):
Where two headings read alike, the source gives them in different places.

How the values were obtained:
[1] = system: AsPC-1 (K-Ras G12D); assay: Potency assay: pERK, other cell line; format: cell-based; conditions: Homo sapiens, ASPC1
[2] = system: Capan-1 (K-Ras G12V); assay: Potency assay: pERK, other cell line; format: cell-based; conditions: Homo sapiens
[3] = system: Capan-1 (K-Ras G12V); assay: CellTiter-Glo cell viability assay, 5-day treatment; format: cell-based; conditions: Homo sapiens, CAPAN-1, 120 h, 5-day treatment; read-out: Capan-1 Cell Viability assay data (K-Ras G12V, IC50)
Method in brief: (§1)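 Seeded cells received test compound by direct dispensing. On day 5 the plates sat at room temperature approximately 30 minutes, then luminescence was measured. Data were normalized to DMSO and curve-fitted with four parameters.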

[4] = system: NCI-H358 (K-Ras G12C); assay: as above; format: cell-based; conditions: Homo sapiens
Method in brief: as §1

[5] = biological target: NRAS Q61R (Homo sapiens, UniProt P01111+P62937, Q61R); assay: Disruption of BRAF RBD interaction with Ras (FRET / MOA assay, with Cyclophilin A); format: biochemical; conditions: NRAS Q61R; read-out: NRAS Q61R FRET data IC50
Chain of NRAS Q61R (P01111 whole entry Q61R): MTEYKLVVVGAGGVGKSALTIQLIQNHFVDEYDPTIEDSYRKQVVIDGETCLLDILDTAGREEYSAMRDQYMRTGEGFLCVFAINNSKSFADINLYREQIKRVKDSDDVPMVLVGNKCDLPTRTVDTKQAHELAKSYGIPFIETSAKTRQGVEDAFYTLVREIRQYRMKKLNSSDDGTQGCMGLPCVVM
Chain of NRAS Q61R (P62937 whole entry): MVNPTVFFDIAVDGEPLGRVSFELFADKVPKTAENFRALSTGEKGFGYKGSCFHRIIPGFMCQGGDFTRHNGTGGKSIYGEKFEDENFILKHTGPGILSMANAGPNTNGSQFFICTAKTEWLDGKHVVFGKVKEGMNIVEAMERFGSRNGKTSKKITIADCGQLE
Method in brief: (§2)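 IC50 reflects compound-driven Ras:Cyclophilin A ternary complex displacing BRAF RBD, read as lowered TR-FRET ratio relative to DMSO after Eu anti-His (10 nM) and APC anti-GST (50 nM) detection for 1.5 h. Prior incubation 3 h, 25° C, with 12.5 nM GMPPNP-loaded Ras, 50 nM BRAF RBD, 25 μM Cyclophilin A; top compound 30 μM.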

[6] = biological target: NRAS Q61K (Homo sapiens, UniProt P01111+P62937, Q61K); assay: as above; format: biochemical; conditions: NRAS Q61K; read-out: NRAS Q61K FRET data IC50
Chain of NRAS Q61K (P01111 whole entry Q61K): as the sequence (P01111 whole entry Q61R) above, with R61K counted along it
Chain of NRAS Q61K (P62937 whole entry): as the sequence (P62937 whole entry) above
Method in brief: as §2

[7] = biological target: NRAS WT (Homo sapiens, UniProt P01111+P62937); assay: as above; format: biochemical; conditions: NRAS WT; read-out: NRAS WT FRET data IC50
Chain of NRAS WT (P01111 whole entry): as the sequence (P01111 whole entry Q61R) above, with R61Q counted along it
Chain of NRAS WT (P62937 whole entry): as the sequence (P62937 whole entry) above
Method in brief: as §2

[8] = biological target: KRAS Q61H (Homo sapiens, UniProt P01116+P62937, Q61H); assay: as above; format: biochemical; conditions: KRAS Q61H; read-out: KRAS Q61H FRET data IC50
Chain of KRAS Q61H (P01116 1-169 isoform P01116-2 Q61H limits assumed): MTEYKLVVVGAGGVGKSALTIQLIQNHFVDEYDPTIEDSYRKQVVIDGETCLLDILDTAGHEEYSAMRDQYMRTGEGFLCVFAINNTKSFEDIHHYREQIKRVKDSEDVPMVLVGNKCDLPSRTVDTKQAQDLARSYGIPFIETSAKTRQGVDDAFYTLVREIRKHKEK
Chain of KRAS Q61H (P62937 whole entry): as the sequence (P62937 whole entry) above
Method in brief: as §2

[9] = NCI-H358, H358, K-Ras G12C, read-out: Additional H358 Cell Viability assay data (K-Ras G12C, IC50)

Structure (SMILES) | EC50 [1] [nM] | EC50 [2] [nM] | IC50 ([4]; NCI-H358, 120 h, 5-day treatment, read-out: H358 Cell Viability IC50) [nM] | IC50 [5] [nM] | IC50 [6] [nM] | IC50 [7] [nM] | IC50 [8] [nM] | IC50 [4, 9] [nM] | IC50 [3] [nM]
CCn1c(-c2cccnc2[C@H](C)OC)c2c3cc(ccc31)-c1cc(O)cc(c1)C[C@H](NC(=O)[C@H](C(C)C)N(C)C(=O)[C@H]1CCN(C(=O)OC)C1)C(=O)N1CCC[C@H](N1)C(=O)OCC(C)(C)C2 (atropisomer, axis not shown) [Example A3] | 144 | 8 | 57 | 100 to 1000 | 100 to 1000 | 10 to 100 | 10 to 100 | – | 10 to 100
C=CC(=O)N1CCC2(C1)CN(C(=O)N(C)[C@H](C(=O)N[C@H]1Cc3nc(cs3)-c3ccc4c(c3)c(c(-c3cccnc3[C@H](C)OC)n4CC(F)(F)F)CC(C)(C)COC(=O)C3CCCN(N3)C1=O)C(C)C)C2 (stereo partly drawn) [Example A603] | – | – | – | 10 to 100 | 10 to 100 | – | 10 to 100 | 10 to 100 | –
C=CC(=O)N1CCOC2(CCN(C(=O)N(C)[C@H](C(=O)N[C@H]3Cc4cc(CF)cc(c4)-c4ccc5c(c4)c(c(-c4cccnc4[C@H](C)OC)n5CC(F)(F)F)CC(C)(C)COC(=O)C4CCCN(N4)C3=O)C(C)C)CC2)C1 (stereo partly drawn) [Example A605] | – | – | – | 100 to 1000 | 100 to 1000 | – | 10 to 100 | 10 to 100 | –
C=CC(=O)N1CCOC2(CCN(C(=O)N(C)[C@H](C(=O)N[C@H]3Cc4nc(n(C)n4)-c4ccc5c(c4)c(c(-c4cccnc4[C@H](C)OC)n5CC(F)(F)F)CC(C)(C)COC(=O)C4CCCN(N4)C3=O)C(C)C)CC2)C1 (stereo partly drawn) [Example A606] | – | – | – | 100 to 1000 | 100 to 1000 | – | 10 to 100 | 100 to 1000 | –
C=CC(=O)N1CCOC2(CCN(C(=O)N(C)[C@H](C(=O)N[C@H]3Cc4cccc(c4)-c4ccc5c(c4)c(c(-c4cccnc4[C@H](C)OC)n5CC(F)(F)F)CC(C)(C)COC(=O)C4CCCN(N4)C3=O)C(C)C)CC2)C1 (stereo partly drawn) [Example A608] | – | – | – | 100 to 1000 | 100 to 1000 | – | 10 to 100 | 10 to 100 | –

The next lines start with results.

EC50 [1] [nM] | EC50 [2] [nM] | IC50 ([4]; NCI-H358, 120 h, 5-day treatment, read-out: H358 Cell Viability IC50) [nM] | IC50 [5] [nM] | IC50 [6] [nM] | IC50 [7] [nM] | IC50 [8] [nM] | IC50 [4, 9] [nM] | Structure (SMILES) | IC50 [3] [nM]
– | – | – | 100 to 1000 | 100 to 1000 | – | 100 to 1000 | < 10 | C=CC(=O)N1CCO[C@H]2CN(C(=O)N(C)[C@H](C(=O)N[C@H]3Cc4cccc(n4)-c4ccc5c(c4)c(c(-c4cccnc4[C@H](C)OC)n5CC(F)(F)F)CC(C)(C)COC(=O)C4CCCN(N4)C3=O)C(C)C)C[C@H]21 (stereo partly drawn) [Example A595] | –
– | – | – | 10 to 100 | 10 to 100 | – | 10 to 100 | < 10 | C=CC(=O)N1CCO[C@H]2CCN(C(=O)N(C)[C@H](C(=O)N[C@H]3Cc4nc(cs4)-c4ccc5c(c4)c(c(-c4cccnc4[C@H](C)OC)n5CC)CC(C)(C)COC(=O)C4CCCN(N4)C3=O)C(C)C)C[C@@H]21 (stereo partly drawn) [Example A609] | –
– | – | – | 100 to 1000 | 100 to 1000 | – | 100 to 1000 | < 10 | C=CC(=O)N1CCO[C@H]2CN(C(=O)N(C)[C@H](C(=O)N[C@H]3Cc4cccc(c4)-c4ccc5c(c4)c(c(-c4cccnc4[C@H](C)OC)n5CC)CC(C)(C)COC(=O)C4CCCN(N4)C3=O)C(C)C)C[C@H]21 (stereo partly drawn) [Example A610] | –
